Assay results published in US20200207744A1, “DIMER COMPOUNDS, AND USE IN BINDING TOXIC REPEATS OF RNA” (EXPANSION THERAPEUTICS, INC., priority 2018, published 2020).

System: r(CUG)12-MBNL1 complex
Experiment: Small molecule inhibition of the r(CUG)12-MBNL1 complex measured by TR-FRET
Assay type: binding
Details: biotinylated r(CUG)12 80 nM, MBNL1-His6 60 nM
Description: Example 28: Small Molecule Inhibition of the r(CUG)12-MBNL1 Complex Measured by Time Resolved Fluorescence Resonance Energy Transfer (TR-FRET)
The in vitro activity of small molecules were assessed by measuring the inhibition of the r(CUG)12-MBNL1 complex using a TR-FRET assay previously reported by Chen et al Analytical and Bioanalytical Chemistry 2012, 402, 1889. Biotinylated r(CUG)12 was folded at 60° C. in 1× Folding Buffer (20 mM HEPES, pH 7.5, 100 mM KCl, and 10 mM NaCl) and slowly cooled to room temperature. The buffer was then adjusted to 1× TR-FRET Buffer (1× Folding Buffer supplemented with 2 mM MgCl2, 2 mM CaCl2, 5 mM DTT, 0.1% BSA, 0.05% Tween-20) and MBNL1-His6 was added. The final concentrations of RNA and MBNL1-His6 were 80 nM and 60 nM, respectively. Then dilutions of the small molecule were made in 1× TR-FRET buffer. The samples were equilibrated at room temperature for 15 min, after which 1 μL of antibody solution (1:1 mixture of 8.8 ng/μL Anti-His6-Tb and 800 nM streptavidin XL-665) was added. Samples were incubated at room temperature for 1 h, and then TR-FRET was measured using a Molecular Devices SpectraMax M5 plate reader using an excitation wavelength of 345 nm and a 420 nm cutoff. Controls for maximum TR-FRET (100% complex formation) contained 8 μL of 1× TR-FRET Buffer with RNA and protein and 1 μL water. Controls for minimum TR-FRET (no complex formation) contained 8 μL of 1× Assay Buffer, 1 μL water, and no RNA or protein.
To calculate the percent inhibition of complex formation, the ratio of fluorescence intensity at 545 nm and 665 nm in the presence of compound was compared to the ratio in the absence of small molecule (100% r(CUG)12-MBNL1 complex formation) and in the absence of RNA and protein (no complex formation). The resulting curves were fit to the following equation to determine IC50 values: […]
where y is ratio of fluorescence intensities at 545 nm and 665 nm (F545/F665), x is the concentration of small molecule, B is F545/F665 value at max FRET effect (solution has RNA and protein but no small molecule added); A is F545/F665 value at min FRET effect (solution has antibodies but no RNA, protein, or small molecule); and the IC50 is the concentration of small molecule where half of the protein is displaced by small molecule.

Compound | IC50
3,3′-((2,2′-(((oxybis(ethane-2,1-diyl))bis(oxy))bis(2,1-phenylene))bis(1H-benzo[d]imidazole-6,2-diyl))bis(oxy))bis(N,N-dimethylpropan-1-amine) [Ex 13] | 188 µM
CN(C)CCCOc1ccc2nc(-c3ccc(-c4nc5ccc(OCCCN(C)C)cc5[nH]4)c(OCCCCCCCCCCCCOc4cc(-c5nc6ccc(OCCCN(C)C)cc6[nH]5)ccc4-c4nc5ccc(OCCCN(C)C)cc5[nH]4)c3)[nH]c2c1 [Ex 20, 3,3′,3″,3′″-((((dodecane-1,12-diylbis(oxy))bis(benzene-2,1,4-triyl))tetrakis(1H-benzo[d]imidazole-2,5-diyl))tetrakis(oxy))tetrakis(N,N-dimethylpropan-1-amine)] | 2.8 µM
3,3′-((2,2′-(2-(3-((3-(2,5-bis(6-(3-(dimethylamino)propoxy)-1H-benzo[d]imidazol-2-yl)phenoxy)propyl)(methyl)amino)propoxy)-1,4-phenylene)bis(1H-benzo[d]imidazole-6,2-diyl))bis(oxy))bis(N,N-dimethylpropan-1-amine) [Ex 18] | 0.72 µM
3,3′-((2,2′-((ethane-1,2-diylbis(oxy))bis(2,1-phenylene))bis(1H-benzo[d]imidazole-6,2-diyl))bis(oxy))bis(N,N-dimethylpropan-1-amine) [Ex 12] | > 200 µM
CN(C)CCCOc1ccc2nc(-c3ccccc3OCCOCCOCCOc3ccccc3-c3nc4ccc(O)cc4[nH]3)[nH]c2c1 [Ex 14b, 2-(2-(2-(2-(2-(2-(6-(3-(dimethylamino)propoxy)-1H-benzo[d]imidazole-2-yl)phenoxy)ethoxy)ethoxy)ethoxy)phenyl)-1H-benzo[d]imidazol-6-ol] | > 200 µM
CN(C)CCCOc1ccc2nc(-c3ccccc3OCCOCCOCCOc3ccccc3-c3nc4ccc(OCCCN(C)C)cc4[nH]3)[nH]c2c1 [Ex 14a, 3,3′-((2,2′-((((ethane-1,2-diylbis(oxy))bis(ethane-2,1-diyl))bis(oxy))bis(2,1-phenylene))bis(1H-benzo[d]imidazole-6,2-diyl))bis(oxy))bis(N,N-dimethylpropan-1-amine)] | 166 µM
